{"source": "paper PMC6382874", "about": "“Succinylation-dependent mitochondrial translocation of PKM2 promotes cell survival in response to nutritional stress” (Cell Death & Disease, 2019)", "key": {"PKM2 [1]": {"tested_on": "PKM2", "parameters": "method as in PMID 20005212", "conditions": "high-throughput screen; cited from earlier work"}, "tumor cell": {"tested_on": "tumor cell", "conditions": "cited from earlier work"}, "[2]": {"tested_on": "PKM2 mitochondrial translocation", "assay": "PKM2 mitochondrial translocation (fractionation, western blot) in HCT116 cells", "assay_type": "cell-based, human", "conditions": "for PKM2 mitochondrial translocation: HCT116, Supplementary Figure S1a", "experimental": "(§1) Fig. 6 Compound 8 blocks PKM2 mitochondrial translocation under nutritional stress and inhibits tumor growth in vivo. a Compound 8 blocks glucose starvation induced PKM2 mitochondrial translocation. Isolation of mitochondria and immunoblot of PKM2, tubulin and Tom 40 were carried out with or without compound 8 treatment. b Compound 8 disrupts interaction of PKM2 and VDAC3. HCT116 cells were transfected with HA-tagged PKM2, cells were harvested and subjected to stag pull down after 8 h 20 µM compound 8 treatment. c Compound 8 induces VDAC3 for degradation. cells were harvested and evaluated VDAC3 protein levels after 8 h 10 or 20 µM compound 8 treatment. d, e Compound 8 caused a decrease in the rate of NADH oxidation. After 8 h of treatment with 20 µM compound 8, HCT116 cells mitochondria were isolated for NADH oxidation assays. NAD/NADH ratios in HCT116 cell lysates were evaluated by LC–MS. f Compound 8 inhibited ATP production in HCT116 cells. g The tumor volume (n = 7) of HCT116 xenografts from mice with intraperitoneal injection of compound 8 and vehicle control\nHCT116 cells were harvested and washed two times with cold PBS. Cells were then homogenized in a buffer (220 mM mannitol, 70 mM sucrose, 2 mM EGTA, 5 mM MOPS-Tris pH 7.4, 2 mM Taurine, 0.2% BSA). The homogenate was spun for 5 min at 800g.The supernatant containing the cytoplasmic and mitochondrial fractions were transferred to a fresh tube and spun for 5 min at 12,000g. The pellet contained the mitochondrial fraction and the supernatant contained the cytoplasmic fraction.\nCells were lysed in buffer containing 50 mM Tris pH8.0, 2 mM EDTA, 150 mM NaCl, 0.5% Nonidet P-40, 10% glycerol and protease inhibitor PMSF. Western blot analysis was carried out based on standard methods. The following commercial antibodies were used as probes: anti-Flag antibody (Sigma, F3165), anti-HA antibody (Sigma, H3663), anti-α-Tubulin (EasyBio, BE0026–100), anti-PKM2 (RuiYingBio, RLT3777), anti-TOM 40 (Santa Cruz sc-365467), anti-succinyllysine antibody (PTM BIO PTM-901), anti-GAPDH (SanJian)."}, "PKM2 succinylation": {"tested_on": "PKM2 succinylation", "conditions": "100 μM, 10 h, HCT116", "quoted_text": "Mitochondria and nuclear fractions were prepared from HCT116 cells under glucose starvation for 10 h. Immunofluorescence analysis was carried out after 10 h of glucose starvation. […] Analysis of PKM2 succinylation in whole-cell extracts prepared from HCT116 cells treated with increasing concentrations of glucose (0, 5, and 25 mM) or SIRT5 overexpression. Lysates prepared from these cells were pulled down with Flag beads and analyzed with antibody to succinylated lysine. d Effect of glucose starvation on endogenous PKM2 succinylation in cells. Analysis of PKM2 succinylation in whole-cell extracts prepared from HCT116 cells treated with increasing concentrations of glucose (0 and 25 mM). […] HCT116 cells were transfected with expression constructs of GFP-tagged vector control GFP-SIRT5. After 10 h glucose starvation, western blot analysis of cytosolic and mitochondrial fractions was performed to evaluate translocation of PKM2 from the cytosolic compartment to the mitochondria. […] 5000 HCT116 cells stably infected with Flag-PKM2 or Flag-PKM2 K433E virus were seeded into 96-well plates and live cell counts were measured in a blood cell counting chamber with trypan blue staining."}, "VDAC3": {"tested_on": "VDAC3", "assay": "VDAC3 protein level (western blot) in HCT116 cells", "assay_type": "cell-based, human", "conditions": "10 μM, 8 h, HCT116", "description": "HCT116 cell lysates were subject to immunoprecipitation with control IgG and anti-VDAC3 antibodies. d, e In vitro binding assay of purified His-tagged-PKM2 and GST-tagged-VDAC3. f K433E enhanced the interaction of PKM2 and VDAC3. Stagged-WT PKM2, a succinylation mimic K433E and a succinylation null mutant K433R and flag-VDAC3 were co-transfected into HCT116 cells for Stag bead pull down that specially pulls down Stagged proteins. g Glucose starvation enhanced the interaction of PKM2 and VDAC3. […]\nas §1, with “Isolation of mitochondria and immunoblot of PKM2, tubulin and Tom 40 were carried out with or without compound 8 treatment. b Compound 8 disrupts interaction of PKM2 and VDAC3.” left out, “After 8 h of treatment with 20 µM compound 8, HCT116 cells mitochondria were isolated for NADH oxidation assays.” left out, “control […]” for “control”"}, "PKM1": {"biological_target": "T1, PKM1 (Homo sapiens, UniProt P14618)", "T1 construct": "His-tag (N); made in house; host or cells: Escherichia coli BL21", "T1 sequence (P14618 1-531 isoform P14618-2)": "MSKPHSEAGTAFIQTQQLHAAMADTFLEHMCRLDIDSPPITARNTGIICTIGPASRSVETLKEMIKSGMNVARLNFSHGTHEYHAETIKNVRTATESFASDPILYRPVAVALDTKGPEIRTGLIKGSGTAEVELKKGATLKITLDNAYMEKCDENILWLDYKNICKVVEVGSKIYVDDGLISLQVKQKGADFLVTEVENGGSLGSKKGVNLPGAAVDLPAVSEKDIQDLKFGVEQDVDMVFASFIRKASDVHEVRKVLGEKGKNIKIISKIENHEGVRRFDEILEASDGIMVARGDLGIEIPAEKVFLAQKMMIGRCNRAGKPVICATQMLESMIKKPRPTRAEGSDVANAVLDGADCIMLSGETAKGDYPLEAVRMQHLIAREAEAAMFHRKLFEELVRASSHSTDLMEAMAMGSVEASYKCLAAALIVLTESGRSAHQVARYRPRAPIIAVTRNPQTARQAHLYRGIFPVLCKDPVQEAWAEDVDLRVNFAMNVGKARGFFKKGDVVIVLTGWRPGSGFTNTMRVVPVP", "assay": "fluorescent PK-LDH coupled assay, PKM1", "assay_type": "biochemical", "experimental": "(§2) Human cDNA for PKM2, PKM1, and VDAC3 were separately cloned into a pET28a (+) and pGEX-4T-1 vector with an N-terminal His-tag and N-terminal GST-tag and purified from the Escherichia coli strain BL21 (Invitrogen) using Ni–agarose beads and GST agarose beads (Qiagen) as described previously. PKL was purchased from Sino Biological Inc. in China.\n(§3) Pyruvate kinase activity was measured with a fluorescent pyruvate kinase–lactate dehydrogenase coupled assay as described previously. All compounds were tested in a kinetic mode by coupling the generation of pyruvate by pyruvate kinase to the depletion of NADH through lactate dehydrogenase. For PKM2, 40 μL of buffer (50 mM Tris–HCl, pH 7.5, 10 mM KCl, 5 mM MgCl2), 1 μL of compound and 5 μL of enzyme solution were dispensed into Corning black solid 96-well plates and incubated for 15 min. Totally, 55 μL of substrate mix (final concentration, 0.5 mM PEP, 4.0 mM ADP, 0.12 mM NADH, 0.25 mM FBP, and 1 unit LDH) were then added, and the plates were placed in a FlexStation3 (Molecular Devices), followed by determination of NADH fluorescence at 30 s exposure intervals for 3–6 min. Data were collected on a FlexStation3."}, "PKL": {"biological_target": "T2, PKL (Homo sapiens, UniProt P30613)", "T2 construct": "purchased Sino Biological Inc", "T2 sequence (P30613 1-543 isoform P30613-2, species assumed)": "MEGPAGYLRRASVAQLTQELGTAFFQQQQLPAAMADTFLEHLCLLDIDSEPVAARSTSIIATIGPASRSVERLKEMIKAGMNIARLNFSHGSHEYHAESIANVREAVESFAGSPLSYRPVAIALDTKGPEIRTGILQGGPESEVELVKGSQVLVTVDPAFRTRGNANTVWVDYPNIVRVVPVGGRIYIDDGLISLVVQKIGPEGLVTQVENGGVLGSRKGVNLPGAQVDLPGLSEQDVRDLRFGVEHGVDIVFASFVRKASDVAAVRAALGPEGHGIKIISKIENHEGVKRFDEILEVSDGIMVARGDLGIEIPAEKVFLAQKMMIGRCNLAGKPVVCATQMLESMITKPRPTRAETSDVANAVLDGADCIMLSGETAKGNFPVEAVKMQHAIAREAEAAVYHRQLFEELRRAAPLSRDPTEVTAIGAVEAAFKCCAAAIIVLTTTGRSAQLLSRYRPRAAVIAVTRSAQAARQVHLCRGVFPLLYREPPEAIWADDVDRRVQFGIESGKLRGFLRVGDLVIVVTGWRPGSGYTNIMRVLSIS", "assay": "fluorescent PK-LDH coupled assay, PKL", "assay_type": "biochemical", "experimental": "as §2, §3"}, "HCT116 cells": {"tested_on": "HCT116 cells", "assay": "cell viability test, HCT116", "assay_type": "cell-based, human", "conditions": "Homo sapiens, HCT-116, 48 h, read-out: IC50 (HCT116)", "experimental": "(§4) We assessed the anti-tumor effects of compound 8 by evaluation of cancer cell viability. Compound 8 reduced cell viability with an IC50 of about 5 µM in MTT reduction assays in HCT116, MCF7, and H1299 cells (Table 2). […] To determine whether cancer cell death brought about by compound 8 is PKM2 dependent, PKM2 was knocked down in HCT116 cells using two different shRNA sequences that specifically targeted exon 10 without interfering with PKM1 expression. Compound 8 is an inhibitor which causes a loss of function of PKM2. If PKM2 is a specially targeted by compound 8, its knockdown should render cells more vulnerable to compound 8-mediated PKM2 inhibition since shRNA and compound 8 work synergistically by reducing the intracellular drug target concentration.\n(§5) Cells were seeded in 96-well plates at 5000 cells/well in DMEM media overnight. Cells were treated with different concentrations of test compound for 48 h at 37 °C in 5% CO2. Cell viability was assayed with the MTS assay (Promega) and trypan blue staining according to the manufacturer’s instructions."}, "MCF7 cells": {"tested_on": "MCF7 cells", "assay": "cell viability test, MCF7", "assay_type": "cell-based", "conditions": "Homo sapiens, MCF7, 48 h, read-out: IC50 (MCF7)", "experimental": "as §4, §5"}, "H1299 cells": {"tested_on": "H1299 cells", "assay": "cell viability test, H1299", "assay_type": "cell-based", "conditions": "Homo sapiens, NCI-H1299, 48 h, read-out: IC50 (H1299)", "experimental": "as §4, §5"}, "PKM2 [3]": {"biological_target": "PKM2 (Homo sapiens, UniProt P14618)", "sequence (P14618 whole entry)": "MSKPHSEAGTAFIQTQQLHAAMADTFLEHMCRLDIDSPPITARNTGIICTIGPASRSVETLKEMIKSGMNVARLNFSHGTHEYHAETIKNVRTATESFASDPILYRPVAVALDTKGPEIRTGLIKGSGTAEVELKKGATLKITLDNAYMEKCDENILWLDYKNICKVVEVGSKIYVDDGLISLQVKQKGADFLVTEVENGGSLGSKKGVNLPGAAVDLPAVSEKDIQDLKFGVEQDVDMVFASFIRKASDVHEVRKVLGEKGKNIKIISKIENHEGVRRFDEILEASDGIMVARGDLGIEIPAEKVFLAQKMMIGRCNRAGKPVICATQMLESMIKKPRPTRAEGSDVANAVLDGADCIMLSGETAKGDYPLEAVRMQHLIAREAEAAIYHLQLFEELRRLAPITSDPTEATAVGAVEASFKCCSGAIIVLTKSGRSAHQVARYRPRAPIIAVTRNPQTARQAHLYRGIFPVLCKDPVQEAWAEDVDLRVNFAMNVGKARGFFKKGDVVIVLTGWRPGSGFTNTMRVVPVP", "assay": "fluorescent pyruvate kinase-lactate dehydrogenase (PK-LDH) coupled assay, PKM2", "assay_type": "biochemical", "parameters": "His-tag (N); made in house; host or cells: Escherichia coli BL21", "experimental": "A random screening of an in-house small molecule library (~1000 total molecules) was undertaken to identify new PKM2 modulators, which can block the interaction of PKM2 and VDAC3. The activity of these test compounds was assessed with a fluorescent PK-LDH coupled assay by a previously reported method (Supplementary Figure S4a)[37]. […] We undertook structural optimization by chemical modification. We designed new compounds utilizing a methyl group instead of the NP-1 chlorine moiety. Synthesis of target compounds was carried out according to the six-step protocol outlined in Supplementary Figure S4d, which was based on a previously described procedure[39],[40].\nas §2, §3"}}, "note": "Where two headings read alike, the source gives them in different places. Peptide text beside a SMILES is read from it. * marks the point of attachment. Cbz = O=C(OCc1ccccc1)*", "data": [{"compound": "Cc1ccc(C)n1-c1ccc(O)c(C(=O)O)c1", "note": "[Compound 3]", "values": [{"measurement": "PKM2 inhibition", "setting": "PKM2 [1]", "value": "inhibits PKM2 activity at micromolar concentrations"}, {"measurement": "suppression of tumor cell proliferation", "setting": "tumor cell", "value": "little suppression of tumor cell proliferation below 200 µM"}]}, {"compound": "epidermal growth factor: growth factor used to stimulate HCT116 cells", "values": [{"measurement": "PKM2 mitochondrial translocation", "setting": "[2]", "value": "did not increase PKM2 mitochondrial translocation"}]}, {"compound": "O=C(O)CCC(=O)O", "note": "[succinic acid, reference compound]", "values": [{"measurement": "mitochondrial PKM2", "setting": "[2]; 100 μM, 10 h, HCT116", "value": "increased mitochondrial PKM2"}, {"measurement": "PKM2 succinylation", "setting": "PKM2 succinylation", "value": "increased PKM2 succinylation"}]}, {"compound": "insulin: hormone used to stimulate HCT116 cells", "values": [{"measurement": "PKM2 mitochondrial translocation", "setting": "[2]", "value": "did not increase PKM2 mitochondrial translocation"}]}, {"compound": "CC(C)C[C@@H](C=O)NC(=O)[C@H](CC(C)C)NC(=O)[C@H](CC(C)C)NC(=O)OCc1ccccc1", "note": "[MG132, reference compound] (Cbz-Leu-Leu-Leu-aldehyde)", "values": [{"measurement": "VDAC3 protein level", "setting": "VDAC3", "value": "upregulated VDAC3"}]}, {"compound": "CC(C)=CC[C@@H](O)C1=CC(=O)c2c(O)ccc(O)c2C1=O", "note": "[Shikonin, reference compound]", "values": [{"measurement": "IC50", "setting": "PKM1; recombinant enzyme, PK-LDH coupled assay, read-out: IC50 (PKM1)", "value": "13 ± 3.37", "unit": "µM"}, {"measurement": "IC50", "setting": "PKL; PK-LDH coupled assay, read-out: IC50 (PKL)", "value": "39.2 ± 6.53", "unit": "µM"}, {"measurement": "induction of cell apoptosis", "setting": "tumor cell", "value": "induces cell apoptosis at low concentrations"}]}, {"compound": "CC1=C(COP(N)(=O)N(CCCl)CCCl)C(=O)c2ccccc2C1=O", "note": "(stereo not drawn) [NP-1]", "values": [{"measurement": "IC50", "setting": "PKM1", "value": "13.7 ± 1.14", "unit": "µM"}, {"measurement": "IC50", "setting": "PKL", "value": "69.6 ± 6.26", "unit": "µM"}, {"measurement": "IC50", "setting": "HCT116 cells", "value": "14.3 ± 3.57", "unit": "µM"}, {"measurement": "IC50", "setting": "MCF7 cells", "value": "17.5 ± 6.34", "unit": "µM"}, {"measurement": "IC50", "setting": "H1299 cells", "value": "8.17 ± 1.92", "unit": "µM"}, {"measurement": "IC50", "setting": "PKM2 [3]", "value": "2930 ± 770", "unit": "nM"}, {"measurement": "PKM2 inhibitory activity compared with shikonin", "setting": "PKM2 [3]; Supplementary Figure S4b", "value": "more powerful than shikonin"}, {"measurement": "selectivity for PKM2 over PKM1 and PKL", "setting": "PKM2 [3]; Supplementary Figure S4c", "value": "highly selective, dose-dependent inhibition of PKM2 with less inhibition of PKM1 and PKL"}]}]}
